One data set deals with Influenza A virus. Description: Antiviral activity against Oseltamivir resistant Influenza A virus (A/Tianjin-Jinnan/15/2009(H1N1) infected in dog MDCK cells assessed as inhibition of surface glycoprotein hemagglutinin. In kind it is functional, organism-based.
Data set [1] can be described thus: Selectivity index, ratio of CC50 for cytotoxicity against dog MDCK cells to IC50 for antiviral activity against Oseltamivir resistant Influenza A virus (A/Tianjin-Jinnan/15/2009(H1N1)) infected in dog MDCK cells. In kind it is toxicity, cell-based. The note with it: read-out: Selectivity Index.

The structures appear in SMILES notation.

What is called IC50 is the concentration that inhibits the measured activity by half. As to `CC(=O)Nc1ccc2oc(-c3ccnc(C(=O)N4CCN([C@H](c5ccccc5)c5nnn(C)n5)CC4)c3)nc2c1`, in the data set on Influenza A virus, the IC50 came to 0.05 µM. For the same molecule, the selectivity ratio in data set [1] was 2870.
Take `CCOC(=O)C1=C[C@@H](OC(CC)CC)[C@H](NC(C)=O)[C@@H](N)C1` [OSELTAMIVIR]: in the data set with Influenza A virus, the IC50 worked out at 180 µM. Moreover, the selectivity ratio in data set [1] is > 1.
Taken in the same sequence, the figures for `CC(=O)Nc1ccc2oc(-c3ccnc(C(=O)N4CCN([C@@H](c5ccccc5)c5nnn(C)n5)CC4)c3)nc2c1` were 8.5 µM and > 23.
`CC(=O)Nc1ccc2oc(-c3ccnc(C(=O)N4CCN([C@H](c5ccc(F)cc5)c5nnn(C)n5)CC4)c3)nc2c1`: in the data set with Influenza A virus, the IC50 came out at 0.06 µM. Further, the selectivity ratio in data set [1] was > 3330.
Taken in the same sequence, the figures for `NC(=O)c1ncn([C@@H]2O[C@H](CO)[C@@H](O)[C@H]2O)n1` [RIBAVIRIN] were 4.28 µM and > 46.
Taken in the same sequence, the figures for `CC(=O)Nc1ccc2oc(-c3ccnc(C(=O)N4CCN([C@@H](c5ccc(F)cc5)c5nnn(C)n5)CC4)c3)nc2c1` were 6.65 µM and > 30.
